Results reported in ChEMBL document CHEMBL3603761 (Bioorg Med Chem, 2015).
Activity calls are given as the source filed them. The calls are words filed in the database; no cut-off is given here.

Legend:
[1] = target: T1, Autotaxin (Homo sapiens, UniProt Q13822); assay: Inhibition of human ATX phosphodiesterase expressed in Sf9 cells assessed as hydrolysis of FS-3 at 10 uM measured after 5 to 25 mins by fluorescence assay
[2] = target: T1, Autotaxin; assay: Inhibition of human ATX phosphodiesterase expressed in Sf9 cells assessed as hydrolysis of FS-3 measured after 5 to 25 mins by fluorescence assay
[3] = test system: MeWo; assay: Antitumor activity against human MeWo cells xenografted in athymic nude mouse assessed as reduction of ATX level in serum at 30 mg/kg, ip administered every other day of 21 days post tumor cell injection; format: functional, organism-based
[4] = test system: MeWo; assay: Antitumor activity against human MeWo cells xenografted in athymic nude mouse at 30 mg/kg, ip administered every other day of 21 days post tumor cell injection; format: functional, organism-based
[5] = test system: MeWo; assay: Cytotoxicity against human MeWo cells assessed as reduction of cell viability after 48 hrs by CellTiter-Blue assay; format: functional
[6] = target: T1, Autotaxin; assay: Irreversible inhibition of human ATX phosphodiesterase activity expressed in Sf9 cells assessed as hydrolysis of FS-3 preincubated for 2 mins before substrate addition measured 1000 fold dilution by fluorescence assay
[7] = test system: MeWo; assay: Inhibition of cell migration in human MeWo cells assessed as gap closure distance at 5 uM after 24 hrs by wound healing assay in presence of 1 uM of LPA; format: functional, cell-based
[8] = test system: SK-OV-3; assay: Inhibition of cell migration in human SKOV3 cells assessed as gap closure distance at 5 uM after 24 hrs by wound healing assay in presence of 1 uM of LPA; format: functional, cell-based
[9] = test system: Mus musculus; assay: Toxicity in human MeWo cells xenografted athymic nude mouse assessed as mortality at 50 mg/kg, ip administered every other day of 21 days post tumor cell injection up to 48 days followed by administered 40 mg/kg, ip; format: organism-based; conditions: in vivo
[10] = Cytotoxicity against human SB2 cells after 48 hrs by CellTiter-Blue assay; format: functional, cell-based; conditions: SB2, 48 h
[11] = test system: MDA-MB-231; assay: Inhibition of cell migration in human MDA-MB-231 cells assessed as gap closure distance at 5 uM after 24 hrs by wound healing assay; format: functional; conditions: MDA-MB-231, 24 h
[12] = test system: MeWo; assay: Antitumor activity against human MeWo cells xenografted in athymic nude mouse assessed as necrosis in tumor at 50 mg/kg, ip administered every other day of 21 days post tumor cell injection up to 48 days followed by administered 40 mg/kg, ip using hematoxylin and eosin staining; format: functional, organism-based
[13] = test system: MeWo; assay: Antitumor activity against human MeWo cells xenografted in athymic nude mouse assessed as reduction of KC/CXCL-1 level in serum at 50 mg/kg, ip administered every other day of 21 days post tumor cell injection; format: functional, organism-based
[14] = test system: HT-29; assay: Cytotoxicity against human HT-29 cells after 48 hrs by CellTiter-Blue assay; format: functional, cell-based; conditions: HT-29, 48 h
[15] = test system: OVCAR-3; assay: Inhibition of cell migration in human OVCAR3 cells assessed as gap closure distance at 5 uM after 24 hrs by wound healing assay in presence of 1 uM of LPA; format: functional, cell-based
[16] = test system: MeWo; assay: Cytotoxicity against human MeWo cells after 48 hrs by CellTiter-Blue assay; format: functional, cell-based
[17] = test system: MeWo; assay: Antitumor activity against human MeWo cells xenografted in athymic nude mouse assessed as necrotic endothelial cells at 50 mg/kg, ip administered every other day of 21 days post tumor cell injection up to 48 days followed by administered 40 mg/kg, ip using hematoxylin and eosin staining; format: functional, organism-based
[18] = test system: Mus musculus; assay: Toxicity in human MeWo cells xenografted athymic nude mouse assessed as mortality at 50 mg/kg, ip administered every other day of 21 days post tumor cell injection measured on day 45; format: organism-based; conditions: in vivo, 504 h
[19] = test system: Mus musculus; assay: Toxicity in human MeWo cells xenografted athymic nude mouse assessed as severe dehydration at 50 mg/kg, ip administered every other day of 21 days post tumor cell injection measured on day 45; format: organism-based; conditions: in vivo, 504 h
[20] = test system: OVCAR-3; assay: Inhibition of cell migration in human OVCAR3 cells assessed as gap closure distance at 5 uM after 24 hrs by wound healing assay; format: functional; conditions: OVCAR-3, 24 h
[21] = test system: MeWo; assay: Antitumor activity against human MeWo cells xenografted in athymic nude mouse assessed as reduction of ATX level in serum at 50 mg/kg, ip administered every other day of 21 days post tumor cell injection; format: functional, organism-based
[22] = test system: MeWo; assay: Inhibition of cell migration in human MeWo cells assessed as gap closure distance at 5 uM after 24 hrs by wound healing assay; format: functional, cell-based
[23] = test system: OVCAR-3; assay: Cytotoxicity against human OVCAR3 cells after 48 hrs by CellTiter-Blue assay; format: functional, cell-based; conditions: OVCAR-3, 48 h
[24] = target: T1, Autotaxin; assay: Inhibition of human ATX phosphodiesterase expressed in Sf9 cells assessed as hydrolysis of FS-3 preincubated for 2 mins before substrate addition measured after 5 to 25 mins by fluorescence assay
[25] = test system: MDA-MB-231; assay: Inhibition of cell migration in human MDA-MB-231 cells assessed as gap closure distance at 5 uM after 24 hrs by wound healing assay in presence of 1 uM of LPA; format: functional, cell-based
[26] = test system: MDA-MB-231; assay: Cytotoxicity against human MDA-MB-231 cells after 48 hrs by CellTiter-Blue assay; format: functional, cell-based; conditions: MDA-MB-231, 48 h
[27] = test system: SK-OV-3; assay: Inhibition of cell migration in human SKOV3 cells assessed as gap closure distance at 5 uM after 24 hrs by wound healing assay; format: functional, cell-based
[28] = test system: PC-3; assay: Cytotoxicity against human PC3 cells after 48 hrs by CellTiter-Blue assay; format: functional, cell-based; conditions: PC-3, 48 h
[29] = test system: SK-OV-3; assay: Cytotoxicity against human SKOV3 cells after 48 hrs by CellTiter-Blue assay; format: functional, cell-based; conditions: SK-OV-3, 48 h

SMILES: C=C(CCCCCC)S(=O)(=O)CCC[N+](C)(C)C
- inhibition [1]: inactive

SMILES: C=C(CCCCCCCCCCCC)S(=O)(=O)CCC[N+](C)(C)C
- Ki [2]: 1790 nM

SMILES: O=C(CCN1CCN(C(=O)OCc2cc(Cl)cc(Cl)c2)CC1)c1ccc2[nH]c(=O)oc2c1
- Activity [3]: inactive
- Activity [4]: inactive

SMILES: O=C1S/C(=C\c2ccc(OCc3cccc(B(O)O)c3)cc2)C(=O)N1Cc1ccc(F)cc1
- Activity [3]: inactive
- Activity [4]: inactive
- Activity [5]: <25%

SMILES: C=C(CCCCCCCC/C=C\CCCCCCCC)S(=O)(=O)CCC[N+](C)(C)C
- Ki [2]: 2430 nM

SMILES: C=C(CCCCCCCCCCCCCCCC)S(=O)(=O)c1ccccc1
- inhibition [6]: inactive
- inhibition [1]: inactive

SMILES: C=C(CCCCCCCCCCCCCCCC)S(=O)(=O)CCC[N+](C)(C)C.[Cl-]
- inhibition [7]: Active
- inhibition [8]: Active
- Activity [9]: Non-toxic
- Ki [2]: 3500 nM
- inhibition [6]: Active
- IC50 [10]: 4890 nM
- inhibition at 5 µM [11]: 75%
- Activity [12]: Active
- Activity [13]: Active
- IC50 [14]: 2110 nM
- inhibition [15]: Active
- IC50 [16]: 4080 nM
- Activity [17]: Active
- Activity [18]: Toxic
- Activity [19]: Toxic
- inhibition at 5 µM [20]: 75%
- Activity [21]: Active
- inhibition [22]: Active
- IC50 [23]: 4440 nM
- inhibition [24]: inactive
- inhibition [25]: Active
- Activity [5]: <25%
- IC50 [26]: 390 nM
- inhibition [27]: Active
- IC50 [28]: 1930 nM
- IC50 [29]: 6740 nM
